Experiments:
Assay type in all cases: functional
[1] = test system: HOP-62; assay: Antitumor activity against human HOP62 cells
[2] = test system: P388; assay: Antitumor activity against mouse P388 cells; settings: for EC50: read-out: ED50 (the source's name)
[3] = test system: SF-295; assay: Antitumor activity against human SF295 cells
[4] = test system: U-251; assay: Antitumor activity against human U251 cells
[5] = test system: RXF 393; assay: Antitumor activity against human RXF393 cells
[6] = test system: CCRF-CEM; assay: Antitumor activity against human CCRF-CEM cells
[7] = test system: DMS-273; assay: Antitumor activity against human DMS273 cells
[8] = Antitumor activity against human […] cells
[9] = test system: HL-60; assay: Antitumor activity against human HL60 cells

Row | SMILES | EC50 [2] [nM] | further results
1 | C[C@@H]1[C@]2(O[C@H]3C=C4[C@@H]5CC[C@H]6Cc7nc8c(nc7C[C@]6(C)[C@H]5C[C@@H](O)[C@]4(C)[C@]31O)C[C@@H]1CC[C@H]3C4=C[C@@H]5O[C@]6(CC[C@](C)(O)CO6)C[C@]5(O)[C@@]4(C)[C@H](O)C[C@@H]3[C@@]1(C)C8)O[C@](C)(CO)C[C@H]2O [CEPHALOSTATIN 7] |  | GI50 [1]: < 0.1 nM; GI50 [2]: < 0.1 nM; GI50 [3]: < 0.1 nM; GI50 [4]: < 0.1 nM; GI50 [5]: < 0.1 nM; GI50 [6]: < 0.1 nM; GI50 [7]: < 0.1 nM; GI50 [8]: < 0.1 nM; GI50 [9]: < 0.1 nM
2 | C[C@@H]1C[C@]2(O[C@H]3C=C4[C@@H]5CC[C@H]6Cc7nc8c(nc7C[C@]6(C)[C@H]5C[C@@H](O)[C@]4(CO)[C@H]3[C@@H]2C)C[C@@H]2CC[C@H]3C4=C[C@@H]5O[C@]6(O[C@](C)(CO)C[C@H]6O)[C@@H](C)[C@]5(O)[C@@]4(C)[C@H](O)C[C@@H]3[C@@]2(C)C8)OC1(C)C [CEPHALOSTATIN 8] |  | GI50 [1]: < 0.1 nM; GI50 [2]: < 0.1 nM; GI50 [3]: < 0.1 nM; GI50 [4]: < 0.1 nM; GI50 [5]: < 0.1 nM; GI50 [6]: < 0.1 nM; GI50 [7]: < 0.1 nM; GI50 [8]: < 0.1 nM; GI50 [9]: < 0.1 nM
3 | C[C@@H]1[C@@]2(CC[C@](C)(O)CO2)O[C@H]2C=C3[C@@H]4[C@@H](O)C[C@H]5Cc6nc7c(nc6C[C@]5(C)[C@H]4C[C@@H](O)[C@]3(C)[C@]21O)C[C@@H]1CC[C@H]2[C@H]3C[C@@H]4O[C@]5(CCC(C)(C)O5)C[C@@H]4[C@@]3(C)[C@H](O)C[C@@H]2[C@@]1(C)C7 [RITTERAZINE F] | 0.81 | 
4 | C[C@@H]1[C@@]2(CC[C@](C)(O)CO2)O[C@H]2C=C3[C@@H]4[C@@H](O)C[C@H]5Cc6nc7c(nc6C[C@]5(C)[C@H]4C[C@@H](O)[C@]3(C)[C@]21O)C[C@@H]1CC[C@H]2C3=C[C@@H]4O[C@]5(CCC(C)(C)O5)C[C@@H]4[C@@]3(C)[C@H](O)C[C@@H]2[C@@]1(C)C7 [RITTERAZINE G] | 0.81 | 
5 | C[C@@H]1[C@@]2(CC[C@](C)(O)CO2)O[C@H]2C=C3[C@@H]4[C@@H](O)C[C@H]5Cc6nc7c(nc6C[C@]5(C)[C@H]4C[C@@H](O)[C@]3(C)[C@]21O)C[C@@H]1CC[C@H]2[C@H]3C[C@@H]4O[C@@]5(CCC(C)(C)O5)C[C@@H]4[C@@]3(C)C(=O)C[C@@H]2[C@@]1(C)C7 [RITTERAZINE H] | 17.8 | 
6 | C[C@@H]1[C@@]2(CC[C@](C)(O)CO2)O[C@H]2C=C3[C@@H]4[C@@H](O)C[C@H]5Cc6nc7c(nc6C[C@]5(C)[C@H]4C[C@@H](O)[C@]3(C)[C@]21O)C[C@@H]1CC[C@@H]2[C@H](CC(=O)[C@]3(C)[C@H]4C[C@@]5(CCC(C)(C)O5)O[C@H]4C[C@]23O)[C@@]1(C)C7 [RITTERAZINE I] | 15.3 | 
7 | C[C@@H]1[C@@]2(CC[C@](C)(O)CO2)O[C@H]2C=C3[C@@H]4[C@@H](O)C[C@H]5Cc6nc7c(nc6C[C@]5(C)[C@H]4C[C@@H](O)[C@]3(C)[C@]21O)C[C@@H]1CC[C@H]2C3=C[C@@H]4O[C@]5(CC[C@@](C)(O)CO5)[C@@H](C)[C@]4(O)[C@@]3(C)[C@H](O)C[C@@H]2[C@@]1(C)C7 [RITTERAZINE J] | 14 | 
8 | C[C@@H]1[C@@]2(CC[C@](C)(O)CO2)O[C@H]2C=C3[C@H]4CC[C@H]5Cc6nc7c(nc6C[C@]5(C)[C@H]4C[C@@H](O)[C@]3(C)[C@]21O)C[C@@H]1CC[C@H]2C3=C[C@@H]4O[C@]5(CC[C@@](C)(O)CO5)[C@@H](C)[C@]4(O)[C@@]3(C)[C@H](O)C[C@@H]2[C@@]1(C)C7 [RITTERAZINE K] | 10.4 | 
9 | C[C@@H]1[C@@]2(CC[C@](C)(O)CO2)O[C@H]2C=C3[C@@H]4CC[C@H]5Cc6nc7c(nc6C[C@]5(C)[C@H]4C[C@@H](O)[C@]3(C)[C@]21O)C[C@@H]1CC[C@H]2C3=C[C@@H]4O[C@]5(CC[C@@](C)(O)CO5)[C@@H](C)[C@@H]4[C@@]3(C)[C@H](O)C[C@@H]2[C@@]1(C)C7 [RITTERAZINE L] | 11.1 | 
10 | C[C@@H]1[C@@]2(CC[C@](C)(O)CO2)O[C@H]2C=C3[C@@H]4CC[C@H]5Cc6nc7c(nc6C[C@]5(C)[C@H]4C[C@@H](O)[C@]3(C)[C@]21O)C[C@@H]1CC[C@H]2C3=C[C@@H]4O[C@@]5(CC[C@](C)(O)CO5)[C@@H](C)[C@@H]4[C@@]3(C)[C@H](O)C[C@@H]2[C@@]1(C)C7 [RITTERAZINE M] | 16.7 | 
11 | C[C@H]1[C@H]2[C@H](C[C@]3(C(=O)C[C@@H]4[C@H]3CC[C@H]3Cc5nc6c(nc5C[C@@]34C)C[C@@H]3CC[C@@H]4[C@H](CC(=O)[C@]45C[C@@H]4O[C@@]7(CCC(C)(C)O7)[C@@H](C)[C@@H]4[C@]5(C)O)[C@@]3(C)C6)[C@@]2(C)O)O[C@@]12CCC(C)(C)O2 [RITTERAZINE N] | 522 | 
12 | C[C@H]1[C@H]2[C@H](C[C@]3(C(=O)C[C@@H]4[C@H]3CC[C@H]3Cc5nc6c(nc5C[C@@]34C)C[C@@H]3CC[C@@H]4[C@H](CC(=O)[C@]45C[C@@H]4O[C@@]7(CCC(C)(C)O7)[C@@H](C)[C@@H]4[C@]5(C)O)[C@@]3(C)C6)[C@@]2(C)O)O[C@]12CCC(C)(C)O2 [RITTERAZINE O] | 2380 | 
13 | C[C@H]1[C@H]2[C@H](C[C@@H]3[C@@H]4CC[C@H]5Cc6nc7c(nc6C[C@]5(C)[C@H]4C[C@@H](O)[C@]23C)C[C@@H]2CC[C@@H]3[C@@H](CC(=O)[C@]34C[C@@H]3O[C@@]5(CCC(C)(C)O5)[C@@H](C)[C@@H]3[C@]4(C)O)[C@@]2(C)C7)O[C@@]12CCC(C)(C)O2 [RITTERAZINE P] | 819 | 
14 | C[C@H]1[C@H]2[C@H](C[C@@H]3[C@@H]4CC[C@H]5Cc6nc7c(nc6C[C@]5(C)[C@H]4C[C@@H](O)[C@]23C)C[C@@H]2CC[C@@H]3[C@@H](CC(=O)[C@]34C[C@@H]3O[C@]5(CCC(C)(C)O5)[C@@H](C)[C@@H]3[C@]4(C)O)[C@@]2(C)C7)O[C@@]12CCC(C)(C)O2 [RITTERAZINE Q] | 657 | 
15 | C[C@H]1[C@H]2[C@H](C[C@@H]3[C@@H]4CC[C@H]5Cc6nc7c(nc6C[C@]5(C)[C@@H]4C[C@@H](O)[C@]23C)C[C@@H]2CC[C@H]3[C@H]4C[C@@H]5O[C@@]6(CCC(C)(C)O6)[C@@H](C)[C@@H]5[C@@]4(C)[C@H](O)C[C@@H]3[C@@]2(C)C7)O[C@@]12CCC(C)(C)O2 [RITTERAZINE R] | 2460 | 
16 | C[C@H]1[C@H]2[C@H](C[C@@H]3[C@@H]4CC[C@H]5Cc6nc7c(nc6C[C@]5(C)[C@@H]4C[C@@H](O)[C@]23C)C[C@@H]2CC[C@H]3[C@H]4C[C@@H]5O[C@@]6(CCC(C)(C)O6)[C@@H](C)[C@@H]5[C@@]4(C)[C@H](O)C[C@@H]3[C@@]2(C)C7)O[C@]12CCC(C)(C)O2 [RITTERAZINE S] | 539 | 
17 | C[C@H]1[C@H]2[C@H](C=C3[C@@H]4CC[C@H]5Cc6nc7c(nc6C[C@]5(C)[C@@H]4C[C@@H](O)[C@@]32C)C[C@@H]2CC[C@@H]3[C@H](CC(=O)[C@]34C[C@@H]3O[C@@]5(CCC(C)(C)O5)[C@@H](C)[C@@H]3[C@]4(C)O)[C@@]2(C)C7)O[C@]12CC[C@](C)(O)CO2 [RITTERAZINE T] | 522 | 
18 | C[C@H]1[C@H]2[C@H](C[C@]3(C(=O)C[C@H]4[C@H]3CC[C@H]3Cc5nc6c(nc5C[C@@]34C)C[C@@H]3CC[C@@H]4[C@@H](CC(=O)[C@]5(C)[C@@H]7[C@H](C[C@]45O)O[C@]4(CC[C@](C)(O)CO4)[C@H]7C)[C@@]3(C)C6)[C@@]2(C)O)O[C@@]12CCC(C)(C)O2 [RITTERAZINE U] | 2340 | 
19 | C[C@H]1[C@H]2[C@H](C=C3[C@@H]4CC[C@H]5Cc6nc7c(nc6C[C@]5(C)[C@@H]4C[C@@H](O)[C@@]32C)C[C@@H]2CC[C@@H]3[C@H](CC(=O)[C@]34C[C@@H]3O[C@@]5(CCC(C)(C)O5)[C@@H](C)[C@@H]3[C@]4(C)O)[C@@]2(C)C7)O[C@]12C[C@](C)(CO)CO2 [RITTERAZINE W] | 3630 | 
20 | C[C@H]1[C@H]2[C@H](C=C3[C@@H]4CC[C@H]5Cc6nc7c(nc6C[C@]5(C)[C@@H]4C[C@@H](O)[C@@]32C)C[C@@H]2CC[C@@H]3[C@H](CC(=O)[C@]34C[C@@H]3O[C@]5(CCC(C)(C)O5)[C@@H](C)[C@@H]3[C@]4(C)O)[C@@]2(C)C7)O[C@]12C[C@](C)(CO)CO2 [RITTERAZINE X] | 3400 | 
21 | C[C@H]1[C@H]2[C@H](C=C3[C@@H]4CC[C@H]5Cc6nc7c(nc6C[C@]5(C)[C@@H]4C[C@@H](O)[C@@]32C)C[C@@H]2CC[C@H]3[C@H]4C[C@@H]5O[C@@]6(CCC(C)(C)O6)[C@@H](C)[C@@H]5[C@@]4(C)[C@H](O)C[C@@H]3[C@@]2(C)C7)O[C@]12CC[C@](C)(O)CO2 [RITTERAZINE Y] | 4 | 
22 | C[C@@H]1[C@H](C)[C@]2(OC[C@]34C(=O)C[C@@H]5[C@@H](CC[C@H]6Cc7nc8c(nc7C[C@@]65C)C[C@@H]5CC[C@@H]6[C@H](CC(=O)[C@]67C[C@@H]6O[C@@]9(CCC(C)(C)O9)[C@@H](C)[C@@H]6[C@]7(C)O)[C@@]5(C)C8)[C@H]3C[C@H](O)[C@@H]4[C@H]2C)OC1(C)C [RITTERAZINE Z] | 2200 | 
